pIC50: −log10 of the molar value.

Chain of H1047R PIK3CA enzyme (P42336 whole entry H1047R): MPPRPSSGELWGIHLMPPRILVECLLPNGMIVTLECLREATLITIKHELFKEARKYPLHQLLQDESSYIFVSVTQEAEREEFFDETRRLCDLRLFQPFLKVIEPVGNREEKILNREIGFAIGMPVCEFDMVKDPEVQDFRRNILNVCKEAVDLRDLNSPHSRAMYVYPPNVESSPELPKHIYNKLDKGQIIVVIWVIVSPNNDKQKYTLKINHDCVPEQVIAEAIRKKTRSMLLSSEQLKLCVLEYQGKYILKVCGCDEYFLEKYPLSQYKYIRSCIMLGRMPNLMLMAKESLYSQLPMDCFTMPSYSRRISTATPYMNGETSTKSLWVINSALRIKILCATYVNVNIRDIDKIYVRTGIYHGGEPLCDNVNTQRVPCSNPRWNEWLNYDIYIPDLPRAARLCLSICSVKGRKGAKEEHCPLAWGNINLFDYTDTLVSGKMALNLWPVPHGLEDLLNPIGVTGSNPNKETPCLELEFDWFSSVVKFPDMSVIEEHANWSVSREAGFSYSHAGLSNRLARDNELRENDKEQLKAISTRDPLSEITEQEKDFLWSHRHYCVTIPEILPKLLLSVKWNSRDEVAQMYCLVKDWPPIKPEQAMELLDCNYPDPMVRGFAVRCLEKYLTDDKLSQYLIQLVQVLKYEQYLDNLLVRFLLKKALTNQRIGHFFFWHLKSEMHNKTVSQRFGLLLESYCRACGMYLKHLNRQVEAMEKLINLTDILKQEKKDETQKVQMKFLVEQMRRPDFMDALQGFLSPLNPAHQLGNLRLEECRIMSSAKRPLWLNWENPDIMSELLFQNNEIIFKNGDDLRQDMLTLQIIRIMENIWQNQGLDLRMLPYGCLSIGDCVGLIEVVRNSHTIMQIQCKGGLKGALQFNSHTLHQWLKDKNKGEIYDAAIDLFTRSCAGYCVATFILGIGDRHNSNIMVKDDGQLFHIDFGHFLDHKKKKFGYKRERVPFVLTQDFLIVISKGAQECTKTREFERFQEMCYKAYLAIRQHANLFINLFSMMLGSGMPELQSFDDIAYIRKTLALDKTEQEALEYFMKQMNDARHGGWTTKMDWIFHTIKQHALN
Chain of H1047R PIK3CA enzyme (P27986 whole entry partner): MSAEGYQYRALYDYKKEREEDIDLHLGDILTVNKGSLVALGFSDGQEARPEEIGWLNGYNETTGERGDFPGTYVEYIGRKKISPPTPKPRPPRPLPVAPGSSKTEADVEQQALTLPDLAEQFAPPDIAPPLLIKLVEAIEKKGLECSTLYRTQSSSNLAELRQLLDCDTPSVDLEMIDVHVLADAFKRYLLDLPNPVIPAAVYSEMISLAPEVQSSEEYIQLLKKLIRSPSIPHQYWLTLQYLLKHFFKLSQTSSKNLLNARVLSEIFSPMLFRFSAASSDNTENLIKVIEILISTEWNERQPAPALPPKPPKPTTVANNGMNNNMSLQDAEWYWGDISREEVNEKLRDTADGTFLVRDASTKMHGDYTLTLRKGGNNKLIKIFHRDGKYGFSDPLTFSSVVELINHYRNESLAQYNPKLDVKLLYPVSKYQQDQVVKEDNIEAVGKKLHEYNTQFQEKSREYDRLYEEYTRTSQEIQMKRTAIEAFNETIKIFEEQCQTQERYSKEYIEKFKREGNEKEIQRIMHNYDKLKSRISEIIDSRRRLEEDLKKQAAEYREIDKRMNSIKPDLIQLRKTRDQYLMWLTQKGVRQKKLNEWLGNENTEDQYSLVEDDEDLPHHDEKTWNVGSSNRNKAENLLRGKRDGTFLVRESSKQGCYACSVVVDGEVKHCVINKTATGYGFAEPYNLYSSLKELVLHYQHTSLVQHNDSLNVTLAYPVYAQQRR

This assay addresses H1047R PIK3CA enzyme (Homo sapiens, UniProt P42336, H1047R). The assay can be described thus: ADP-Glo Biochemical PIK3CA Kinase Assay. In general terms: ADP-Glo turns the ADP formed in a reaction into a luminescent signal.
For the compound `Cc1ccccc1C1NCCc2c(Br)ccc(NC(=O)c3cc(F)cc(C(F)(F)F)c3)c21` (centres unmarked) [Compound I-1963], the pIC50 (as a rule, −log10 of the IC50, conventionally taken in molar units) is 4.00 to 5.00. For `O=C1NC(c2cc(F)ccc2Cl)c2c(NC(=O)N3C[C@@H](O)[C@@H](O)C3)cc(-c3ccc4ncnn4c3)cc21` (some centres unmarked) [Compound I-1965] the value was 4.00 to 5.00; for `O=C1NC(c2cc(F)ccc2Cl)c2c(NC(=O)C34CCC(CC3)O4)cc(-c3ccc4ncnn4c3)cc21` (centres unmarked) [Compound I-1966], 4.00 to 5.00; for `O=C(Nc1cccc2c1C(C1(O)CCCCC1)NC2=O)c1cc(F)cc(C(F)(F)F)c1` (centres unmarked) [Compound I-1967], 4.00 to 5.00. Then `CN(C)S(=O)(=O)c1cc(-c2ccc3ncnn3c2)cc2c1C(c1cc(F)ccc1Cl)NC2=O` (centres unmarked) [Compound I-1968], with 4.00 to 5.00. Then `O=C(Nc1cccc2c1C(C13CC4CC(CC(C4)C1)C3)NC2=O)c1cc(F)cc(C(F)(F)F)c1` (centres unmarked) [Compound I-1969], with 4.00 to 5.00; and `NS(=O)(=O)c1cc(-c2ccc3ncnn3c2)cc2c1C(c1cc(F)ccc1Cl)NC2=O` (centres unmarked) [Compound I-1970], with 4.00 to 5.00. On to `COc1cc(-c2ccc3ncnn3c2)cc2c1C(c1cc(F)ccc1Cl)NC2=O` (centres unmarked) [Compound I-1973], for which the negative-log IC50 (pIC50) is 4.00 to 5.00. For `O=C1NC(c2cc(F)ccc2Cl)c2c(Nc3cccc(=O)[nH]3)cc(Br)cc21` (centres unmarked) [Compound I-1974] the value was 5.00 to 6.00. Turning to `CNS(=O)(=O)c1cc(-c2ccc3ncnn3c2)cc2c1C(c1cc(F)ccc1Cl)NC2=O` (centres unmarked) [Compound I-1977], the pIC50 was 4.00 to 5.00. Then `O=C(NCc1ccccc1)c1cc(Br)cc2c1C(c1cc(F)ccc1Cl)NC2=O` (centres unmarked) [Compound I-1979], with 4.00 to 5.00. For `O=C1NC(c2cc(F)ccc2Cl)c2c(Cn3ccccc3=O)cc(-c3ccc4ncnn4c3)cc21` (centres unmarked) [Compound I-1980] the value was 4.00 to 5.00; for `O=C1NC(c2cc(F)ccc2Cl)c2c(COc3cc4ccccc4cn3)cc(-c3ccc4ncnn4c3)cc21` (centres unmarked) [Compound I-1981], 5.00 to 6.00; for `NC1CCCCC1C(=O)Nc1cc(-c2ccc3ncnn3c2)cc2c1C(c1cc(F)ccc1Cl)NC2=O` (centres unmarked) [Compound I-1982], 4.00 to 5.00. For `NC(=O)CC(=O)Nc1cc(-c2ccc3ncnn3c2)cc2c1C(c1cc(F)ccc1Cl)NC2=O` (centres unmarked) [Compound I-1983] the value was 4.00 to 5.00; for `O=C(Nc1cc(-c2cnc3ncc(Cl)n3c2)cc2c1[C@@H](c1cc(F)ccc1Cl)NC2=O)c1cc(F)cc(C(F)(F)F)c1` [Compound I-1984], 6.00 to 6.30.

The compound `O=C(Nc1cc(-c2cnc3ncc(Cl)n3c2)cc2c1[C@H](c1cc(F)ccc1Cl)NC2=O)c1cc(F)cc(C(F)(F)F)c1` [Compound I-1985] had a negative-log IC50 (pIC50) of no less than 7.00. For `O=C(Nc1cc(-c2ccc3nc(C(F)F)nn3c2)cc2c1[C@@H](c1cc(F)ccc1Cl)NC2=O)c1cc(F)cc(C(F)(F)F)c1` [Compound I-1986] the value was 5.00 to 6.00; for `O=C(Nc1cc(-c2ccc3nc(C(F)F)nn3c2)cc2c1[C@H](c1cc(F)ccc1Cl)NC2=O)c1cc(F)cc(C(F)(F)F)c1` [Compound I-1987], no less than 7.00. Then `CC#Cc1cc(-c2ccc3ncnn3c2)cc2c1C(c1cc(F)ccc1Cl)NC2=O` (centres unmarked) [Compound I-1988], with 4.00 to 5.00; and `O=C1NC(c2cc(F)ccc2Cl)c2c(NC(=O)[C@H]3C[C@@H](C(F)(F)F)C3)cc(Br)cc21` (some centres unmarked) [Compound I-1989], with 5.00 to 6.00; and `O=C1NC(c2cc(F)ccc2Cl)c2c1cc(-c1ccc3ncnn3c1)cc2N1C(=O)CCC1=O` (centres unmarked) [Compound I-1990], with 4.00 to 5.00. Consider `O=C1NC(c2cc(F)ccc2Cl)c2c(Nc3ccn(C4CC4)n3)cc(-c3ccc4ncnn4c3)cc21` (centres unmarked) [Compound I-1993], for which the pIC50 was 4.00 to 5.00. `O=C1NC(c2cc(F)ccc2Cl)c2c(Nc3ccn(CCO)n3)cc(-c3ccc4ncnn4c3)cc21` (centres unmarked) [Compound I-1994] gave a negative logarithm of the IC50 (pIC50) of 4.00 to 5.00. For `CS(=O)(=O)n1cc(-c2cc(NC(=O)c3cc(F)cc(C(F)(F)F)c3)c3c(c2)C(=O)N[C@@H]3c2cc(F)ccc2Cl)cn1` [Compound I-1995] the value was 6.00 to 6.30; for `CS(=O)(=O)n1cc(-c2cc(NC(=O)c3cc(F)cc(C(F)(F)F)c3)c3c(c2)C(=O)N[C@H]3c2cc(F)ccc2Cl)cn1` [Compound I-1996], no less than 7.00; for `O=C1NC(c2cc(F)ccc2Cl)c2c1cc(-c1ccc3ncnn3c1)cc2C1=CCNCC1` (centres unmarked) [Compound I-1997], 4.00 to 5.00.

In turn, `O=C1NC(c2cc(F)ccc2Cl)c2c1cc(-c1ccc3ncnn3c1)cc2C1=CCCNC1` (centres unmarked) [Compound I-1998] showed a negative logarithm of the IC50 (pIC50) of 4.00 to 5.00. For `O=C1NC(c2cc(F)ccc2Cl)c2c(CN3CCCCC3=O)cc(-c3ccc4ncnn4c3)cc21` (centres unmarked) [Compound I-1999] the value was 4.00 to 5.00. For `N#CCC(=O)Nc1cc(-c2ccc3ncnn3c2)cc2c1C(c1cc(F)ccc1Cl)NC2=O` (centres unmarked) [Compound I-2000] the value was 4.00 to 5.00; for `O=C1NC(c2cc(F)ccc2Cl)c2c1cc(-c1ccc3ncnn3c1)cc2N(CC(=O)N1CCCCC1)C(=O)C(F)(F)F` (centres unmarked) [Compound I-2001], 4.00 to 5.00; for `O=C(Nc1cc(-c2ccnc(C(F)F)c2)cc2c1[C@@H](c1cc(F)ccc1Cl)NC2=O)c1cc(F)cc(C(F)(F)F)c1` [Compound I-2002], 5.00 to 6.00. Then `O=C(Nc1cc(-c2ccnc(C(F)F)c2)cc2c1[C@H](c1cc(F)ccc1Cl)NC2=O)c1cc(F)cc(C(F)(F)F)c1` [Compound I-2003], with no less than 7.00; and `O=C(Nc1cc(-c2ccc(C(F)F)nc2)cc2c1[C@@H](c1cc(F)ccc1Cl)NC2=O)c1cc(F)cc(C(F)(F)F)c1` [Compound I-2004], with 5.00 to 6.00.

In turn, `O=C(Nc1cc(-c2ccc(C(F)F)nc2)cc2c1[C@H](c1cc(F)ccc1Cl)NC2=O)c1cc(F)cc(C(F)(F)F)c1` [Compound I-2008] gave a pIC50 of no less than 7.00. Then `O=C1NC(c2cc(F)ccc2Cl)c2c(NC3CCS(=O)(=O)CC3)cc(-c3ccc4ncnn4c3)cc21` (centres unmarked) [Compound I-2010], with 4.00 to 5.00. Compound `[2H]c1nc2cnc(-c3cc(NC(=O)c4cc(F)cc(C(F)(F)F)c4)c4c(c3)C(=O)NC4c3cc(F)ccc3Cl)cn2n1` (centres unmarked) [Compound I-2012] showed a negative logarithm of the IC50 (pIC50) of no less than 7.00. Take `O=C1NC(c2cc(F)ccc2Cl)c2c1cc(-c1ccc3ncnn3c1)cc2-n1ccc2c(F)cc(C(F)(F)F)cc2c1=O` (centres unmarked) [Compound I-2016]: the pIC50 was 5.00 to 6.00. For `O=C1NC(c2cc(F)ccc2Cl)c2c(COc3ccccc3)cc(-c3ccc4ncnn4c3)cc21` (centres unmarked) [Compound I-2017] the value was 4.00 to 5.00; for `O=C1NC(c2cc(F)ccc2Cl)c2c1cc(-c1ccc3ncnn3c1)cc2N1CCn2ncnc2C1` (centres unmarked) [Compound I-2018], 4.00 to 5.00; for `O=C1NC(c2cc(F)ccc2Cl)c2c1cc(-c1ccc3ncnn3c1)cc2N1CCn2cnnc2C1` (centres unmarked) [Compound I-2019], 4.00 to 5.00. For the compound `CN1CCC=C(c2cc(-c3ccc4ncnn4c3)cc3c2C(c2cc(F)ccc2Cl)NC3=O)C1` (centres unmarked) [Compound I-2020], the pIC50 is 4.00 to 5.00. Then `CN1CC=C(c2cc(-c3ccc4ncnn4c3)cc3c2C(c2cc(F)ccc2Cl)NC3=O)CC1` (centres unmarked) [Compound I-2021], with 4.00 to 5.00; and `N#CCOc1cc(-c2ccc3ncnn3c2)cc2c1C(c1cc(F)ccc1Cl)NC2=O` (centres unmarked) [Compound I-2022], with 4.00 to 5.00. Then `O=C1NC(c2cc(F)ccc2Cl)c2c(NC3CCNCC3)cc(-c3ccc4ncnn4c3)cc21` (centres unmarked) [Compound I-2024], with 4.00 to 5.00; and `O=C1NC(c2cc(F)ccc2Cl)c2c(Nc3ccncc3)cc(Br)cc21` (centres unmarked) [Compound I-2025], with 4.00 to 5.00; and `O=C1NC(c2cc(F)ccc2Cl)c2c(Cn3ccc4ccccc4c3=O)cc(-c3ccc4ncnn4c3)cc21` (centres unmarked) [Compound I-2026], with 4.00 to 5.00. Turning to `O=C1NC(c2cc(F)ccc2Cl)c2c(NC(=O)[C@H]3C[C@@H](O)C[C@@H](C(F)(F)F)C3)cc(Br)cc21` (some centres unmarked) [Compound I-2027], the pIC50 is 4.00 to 5.00. In turn, `O=C1N[C@@H](c2cc(F)ccc2Cl)c2c(NC(=O)[C@@H]3CCC[C@H](C(F)(F)F)C3)cc(-c3ccc4ncnn4c3)cc21` [Compound I-2030] had a pIC50 of 6.00 to 6.30. For `O=C1N[C@H](c2cc(F)ccc2Cl)c2c(NC(=O)[C@@H]3CCC[C@H](C(F)(F)F)C3)cc(-c3ccc4ncnn4c3)cc21` [Compound I-2031] the value was 5.00 to 6.00. Then `O=C1NC(c2cc(F)ccc2Cl)c2c(NCC(=O)N3CCCCC3)cc(-c3ccc4ncnn4c3)cc21` (centres unmarked) [Compound I-2038], with 4.00 to 5.00. Regarding `O=C1NC(c2cc(F)ccc2Cl)c2c1cc(-c1ccc3ncnn3c1)cc2N1CCn2cc(C(F)(F)F)nc2C1` (centres unmarked) [Compound I-2039], the pIC50 is 4.00 to 5.00. Then `O=C1NC(c2cc(F)ccc2Cl)c2c1cc(-c1ccc3ncnn3c1)cc2N1CCn2c(nnc2C(F)(F)F)C1` (centres unmarked) [Compound I-2040], with 4.00 to 5.00; and `O=C(Nc1cccc2c1C(C(=O)N1CCCCC1)NC2=O)c1cc(F)cc(C(F)(F)F)c1` (centres unmarked) [Compound I-2041], with 4.00 to 5.00. As to `NC1CN(C(=O)Nc2cc(Br)cc3c2C(c2cc(F)ccc2Cl)NC3=O)c2ccccc21` (centres unmarked) [Compound I-2042], the pIC50 is 5.00 to 6.00. In turn, `O=C1NC(c2cc(F)ccc2Cl)c2c(OC3CCOc4ccccc43)cc(-c3ccc4ncnn4c3)cc21` (centres unmarked) [Compound I-2043] showed a pIC50 of 4.00 to 5.00.

Take `O=C(CC1(C(F)(F)F)CC1)Nc1cc(-c2ccc3ncnn3c2)cc2c1C(c1cc(F)ccc1Cl)NC2=O` (centres unmarked) [Compound I-2044]: the pIC50 was 5.00 to 6.00. The compound `O=C1NC(c2cc(F)ccc2Cl)c2c(NC(=O)C3CCS(=O)(=O)CC3)cc(-c3ccc4ncnn4c3)cc21` (centres unmarked) [Compound I-2045] showed a pIC50 of 5.00 to 6.00. For `O=C1NC(c2cc(F)ccc2Cl)c2c1cc(-c1ccc3ncnn3c1)cc2N1CCN(C(=O)C(F)(F)F)CC1` (centres unmarked) [Compound I-2046] the value was 4.00 to 5.00; for `CC(=O)N1CCN(c2cc(-c3ccc4ncnn4c3)cc3c2C(c2cc(F)ccc2Cl)NC3=O)CC1` (centres unmarked) [Compound I-2047], 4.00 to 5.00. Then `O=C1NC(c2cc(F)ccc2Cl)c2c1cc(-c1cnn(C(F)F)c1)cc2-c1nc2cc(C(F)(F)F)cc(F)c2[nH]1` (centres unmarked) [Compound I-2048], with 5.00 to 6.00. For `O=C1NC(c2cc(F)ccc2Cl)c2c(Nc3n[nH]c4c(C(F)(F)F)cc(F)cc34)cc(-c3ccc4ncnn4c3)cc21` (centres unmarked) [Compound I-2049], the pIC50 is no less than 7.00.

The record behind these values is patent US12581252B2, “Substituted pyrrolo[3,4-b]pyridines as PI3K-α inhibitors” (Relay Therapeutics, Inc., priority 2020, dated 2026).
